Assay results reported in publication PMC9658513, “Discovery of Compounds That Selectively Repress the Amyloidogenic Processing of the Amyloid Precursor Protein: Design, Synthesis and Pharmacological Evaluation of Diphenylpyrazoles” (International Journal of Molecular Sciences, 2022).
Where two headings read alike, the source gives them in different places.

Key:
[1] = test system: LC3; assay: Autophagic flux: LC3-I lipidation into LC3-II by Western blot; format: cell-based; details: Homo sapiens, 24 h, 0.1 µM (100 nM), SY5Y-APP^wt cells, vs control
From the text: (§1) Previous work dedicated to compounds of family C [22] has underlined the effect of our compounds on autophagic flux and the lysosomal degradation pathways. More precisely, the role of the amino side chains and their number was highlighted. Therefore, we assessed whether the activity of compounds involved the modulation of lysosomal activities toward the accumulation of APP-CTFs and AICD. Thus, we studied the effect of a selection of compounds on the autophagic flux, more particularly, we evaluated the effect of compounds 24, 33, 34, 57, 65, 67, 70, and 71 on two markers associated with autophagy: p62 and LC3-I lipidation into LC3-II. To the previous selection of efficient compounds decreasing Aβ1–x production and increasing CTFα and AICD, we added compound 65 with no cytotoxicity at 100 µM. As a comparison, we also selected compound 57 with a hydroxymethyl substituent as a control. In addition to CQ, bafilomycin A, a well-known inhibitor of autophagic flux, was used as a control. Treatment with compounds 67 and 71 induced an increase in p62 expression by 2.5 and 4-fold, respectively, compared to the control condition (Figure 3). […] An increase in the two markers was also observed with compound 57, but to a smaller extent (1.7-fold for p62 and 2-fold for LC3-I/LC3-II).
(§2) The human neuroblastoma cell line SY5Y-APP^695WT was maintained in Dulbecco’s modified Eagle medium (DMEM, high glucose, pyruvate—GIBCO, Life Technologies, Carlsbad, CA, USA) supplemented with 10% fetal bovine serum, 2 mM L-glutamine, 1 mM non-essential amino acids and penicillin/streptomycin (GIBCO, Life Technologies, Carlsbad, CA, USA) at 37 °C in a 5% CO2 humidified incubator [36]. For compound treatment, a 10 mM stock solution was diluted in freshly supplemented DMEM medium to obtain the precise final concentration of the drug. Cells were plated at a density of 5 × 10^5 cells per well into 12-well plates and cultured with 1 mL supplemented DMEM cell medium for 24 h before compound exposure. The following day, the cell medium was replaced with fresh medium containing the compounds diluted at the indicated concentrations. Cells were treated for 24 h. At the end of the treatments, the cell medium was collected and kept at −80 °C until use, cells were rinsed once with PBS and extracted in 100 µL of Laemmli buffer (10 mM Tris, 20% glycerol, and 2% sodium dodecyl sulfate) using a cell-scraper. The cell lysate was further sonicated (30 pulses of 0.5 s, 60 Hz) for 5 min. Total protein concentration was determined using the Pierce BCA Protein Assay Kit (Thermo Scientific, Waltham, MA, USA) according to the manufacturer’s instructions. Samples were stored at −80 °C until analysis.
(§3) Cell protein lysates were prepared for Western blot analysis by diluting the sample with 1 volume of NuPAGE® lithium dodecyl sulfate (LDS) 2X sample buffer supplemented with 20% NuPAGE® sample reducing agents (Invitrogen). Samples were heated for 10 min at 100 °C. Ten µg of total proteins per well were loaded onto precast 4–12% Criterion XT Bis-Tris polyacrylamide gels (Bio-Rad) and electrophoresis was achieved after applying a tension of 150 V for 90 min using a Criterion electrophoresis cell with the NuPAGE® MOPS SDS running buffer (1X). Proteins were transferred to a nitrocellulose membrane of […] pore size (G&E Healthcare, Madison, WI, USA) using the Criterion blotting system and applying a tension of 100 V for 45 min. To resolve proteins of low molecular weights such as carboxy-terminal fragments of APP, 12% Criterion XT Bis-Tris polyacrylamide gels (Bio-Rad, Hercules, CA, USA) were used, and electrophoresis was performed for 70 min at 150 V in a NuPAGE® MES SDS running buffer (1X). Proteins were transferred to a nitrocellulose membrane of 0.2 µm pore size (G&E Healthcare, Madison, WI, USA) at 100 V for 40 min. Molecular weight calibration was achieved using molecular weight markers (Novex and Magic Marks, Life Technologies, Carlsbad, CA, USA). […]

[2] = test system: p62; assay: Autophagic flux: p62 expression by Western blot; format: cell-based, human; details: Homo sapiens, 24 h, 0.1 µM (100 nM), SY5Y-APP^wt cells, vs control
From the text: as §1, §2, §3

[3] = test system: p62/LC3; assay: Ratio between p62 and LC3 expression levels; format: cell-based, human; details: 24 h, SY5Y-APP^wt cells
From the text: Compounds from both series were selected to first determine the potential relationship between the repression of Aβ1–x production and the increased expression of LC3 and p62. […] We then also considered the ratio between the p62 and LC3 expression levels.
Figure 3 Effect of compounds 24, 33, 34, 57, 65, 67, 70, and 71 on the autophagic flux in SY5Y-APP^wt cells. […] Cell lysates were immunolabeled with the following antibodies: p62 (a), LC3 (b), and β-actin. Statistical significance was set at * p < 0.05, ** p < […], *[…], **** p < 0.0001, and ns as not significant.

[4] = test system: Aβ1–40 peptide secretion; assay: Aβ1–40 secretion in cell medium by ELISA; format: cell-based, human; details: SY5Y-APP^WT cells, 24 h treatment, mean ± SD of at least three experiments in triplicate, read-out: Aβ1–40 IC50
Procedure: (§4) The final and selected intermediate compounds were evaluated for their ability to modulate APP processing in the SH-SY5Y human neuroblastoma cell line stably expressing the neuronal isoform of human wild-type APP^695 (SY5Y-APP^WT), a well-established model for the study of APP metabolism. APP carboxy-terminal fragments (αCTFs and AICD) levels were assessed by Western blotting (WB). The effect of the reference and test compounds on αCTFs and AICD is expressed as the intensity of corresponding WB bands. The concentration of compounds able to increase 20-times αCTFs and AICD (C20) when compared to the control condition was calculated. Selected compounds were also evaluated for their ability to modulate the secretion of soluble APP fragments (sAPPα and sAPPβ). Aβ1–x levels (Aβ1–40 and Aβ1–42) after treatment with the reference and tested compounds were measured in the cell media by ELISA (Table 1). […] Selected hit compounds were then further evaluated for their ability to decrease the level of N-truncated Aβ peptides (Aβx–38, Aβx–40, and Aβx–42).
as §2
(§5) Conditioned media of SY5Y-APP^695WT collected at the end of treatments were centrifuged at 1000× g for 5 min to eliminate cell debris.
(§6) Aβ1–40/Aβ1–42 peptides, Aβx–38/Aβx–40/Aβx–42, and sAPPα/sAPPβ concentrations in pg/mL were determined, respectively, using amyloid-beta 40 and 42 Human ELISA Kits (Invitrogen), the V-PLEX Plus Aβ Peptide Panel 1 (4G8) Kit (Meso Scale Diagnostics, MSD R©, Rockville, MD, USA), and the sAPPα/sAPPβ Multiplex Kit (Meso Scale Diagnostics, MSD R©, Rockville, MD, USA) according to the manufacturer’s instructions.

[5] = test system: Aβ1–42 peptide secretion; assay: Aβ1–42 secretion in cell medium by ELISA; format: cell-based, human; details: SY5Y-APP^WT cells, 24 h treatment, mean ± SD of at least three experiments in triplicate
Procedure: as §4, §2, §5, §6

[6] = test system: αCTF (APP carboxy-terminal fragment); assay: αCTF level by Western blotting in SY5Y-APP^WT cells; format: cell-based, human; details: concentration increasing αCTF 20-fold vs untreated control, SY5Y-APP^WT cells, read-out: αCTF (C20)
Procedure: as §4, §2
as §3, with “USA). Protein transfer and quality were determined by a reversible Ponceau Red coloration (0.2% xylidine Ponceau Red and 3% trichloroacetic acid).” for “USA).”

[7] = test system: AICD (APP intracellular domain); assay: AICD level by Western blotting in SY5Y-APP^WT cells; format: cell-based, human; details: concentration increasing AICD 20-fold vs untreated control, read-out: AICD (C20)
Procedure: as §4, §2
as §3, with “USA). Protein transfer and quality were determined by a reversible Ponceau Red coloration (0.2% xylidine Ponceau Red and 3% trichloroacetic acid).” for “USA).”

[8] = in vitro; format: cell-based, human; details: human
Procedure: (§7) Cytotoxicity was measured using 3-(4,5-dimethylthiazol-2-yl)-5-(3-carboxymethoxyphenyl)-2-(4-sulfophenyl)-2H-tetrazolium (MTS) tests. SY5Y-APP^695WT cells were plated in a 96-well plate at 3 × 10^4 cells per well and allowed to attach for 24 h. Cells were then incubated for 72 h with 100 µL of DMEM with 10% SVF containing (or not) the defined concentration of drugs. Cytotoxicity was determined by using the colorimetric MTS assay (Cell Titer 96® Aqueous One Solution Cell Proliferation Assay-MTS Promega, Madison, WI, USA) according to the manufacturer’s instructions. Absorbance was read at 490 nm.

[9] = test system: SY5Y-APP^695WT cells; assay: in vitro; format: cell-based, human
Procedure: as §7

Row | Compound | IC50 ([4]; Homo sapiens) [nM] | IC50 ([5]; Homo sapiens) [µM] | EC (20-fold increase) ([6]; Homo sapiens) [µM] | EC (20-fold increase) ([7]; Homo sapiens) [µM] | CC50 at 72 h [8] [µM] | IC50 [4] [nM] | IC50 [5] [µM] | EC (20-fold increase) [6] [µM] | EC (20-fold increase) [7] [µM] | CC50 [9] [µM] | also measured
1 | CO/C1=C\C(C)=C\[C@@H](C)[C@@H](O)[C@@H](C)C/C(C)=C/C=C/[C@H](OC)[C@@H]([C@@H](C)[C@@H](O)[C@H](C)[C@@]2(O)C[C@@H](O)[C@H](C)[C@@H](C(C)C)O2)OC1=O [Baf A1, bafilomycin A1, reference compound] |  |  |  |  |  |  |  |  |  |  | fold induction at 0.1 µM [1]: 4.68; fold induction at 0.1 µM [2]: 1.48; p62/LC3 ([3]; 0.1 µM (100 nM)): 0.31
2 | Cc1cn(-c2cccc(CN(C)CCCN(C)C)c2)nc1-c1cccc(CN(C)C)c1 [Compound 66, N′-[[3-[3-[3-(Dimethylaminomethyl)phenyl]-4-methyl-pyrazol-1-yl]phenyl]methyl]-N,N,N’-trimethyl-propane-1,3-diamine] | 2200 ± 300 | 2.5 ± 1 | 2.2 | 2.4 | 47 |  |  |  |  |  | 
3 | Cc1cn(-c2cccc(CN3CCN(C)CC3)c2)nc1-c1ccc(CN(C)CCCN(C)C)cc1 [Compound 68, [3-(Dimethylamino)propyl](methyl){[4-(4-methyl-1-{3-[(4-methylpiperazin-1-yl)methyl]phenyl}-1H-pyrazol-3-yl)phenyl]methyl}amine] | 1200 ± 100 | 1.6 ± 0.1 | 1 | 1 | 6 |  |  |  |  |  | 
4 | Cc1cn(-c2cccc(CN(C)CCCN(C)C)c2)nc1-c1cccc(CN(C)CCCN(C)C)c1 [Compound 72, N′-[[3-[1-[3-[[3-(Dimethylamino)propyl-methyl-amino]methyl]phenyl]-4-methyl-pyrazol-3-yl]phenyl]methyl]-N,N,N′-trimethyl-propane-1,3-diamine] | 2600 ± 200 | 3.3 ± 0.1 | 0.6 | 0.8 | 26 |  |  |  |  |  | 
5 | N′-[[3-[4-[3-(Dimethylamino)propyl]-3-[4-[3-(dimethylamino)propyl]phenyl] Pyrazol-1-yl]phenyl]methyl]-N,N,N′-trimethyl-propane-1,3-diamine [Compound 35] |  |  |  |  |  | 12400 ± 600 | 13.2 ± 0.2 | 5.1 | 5.4 | > 100 | p62/LC3 ([3]; compound at 3 µM): ~1
6 | N′-[[4-[4-(Dimethylaminomethyl)-3-[4-[3-(dimethylamino)propyl]phenyl] Pyrazol-1-yl]phenyl]methyl]-N,N,N′-trimethyl-propane-1,3-diamine [Compound 32] |  |  |  |  |  | 4200 ± 100 | 6.1 ± 0.3 | 1.1 | 1.8 | > 100 | 
